In patent US4248887A, “Antibacterial compounds, processes for their preparation and compositions containing them” (priority 1978, dated 1981):
Converted amounts (≈) assume the structure as drawn. Where two headings read alike, the source gives them in different places.

Columns and labels:
Strep. uberis SPU1 = experiment: MIC against veterinary bacteria; conditions: Streptococcus uberis
M. hyorhinis ATCC 23234 = experiment: Anti-mycoplasma MIC; assay type: cell-based; conditions: Mesomycoplasma hyorhinis, ATCC23234; M. hyorhinis ATCC 23234; Agar (serial dilution in Friis' agar); read-out: MIC
Strep. pyogenes B 2788 = experiment: MIC by serial dilution in nutrient agar (human bacteria); conditions: Streptococcus pyogenes, B2788
B. subtilis = experiment: as above; conditions: Bacillus subtilis
Staph. aureus Russell = experiment: as above; conditions: Staphylococcus aureus
Bord. bronchiseptica BO9 = experiment: MIC against veterinary bacteria; conditions: Bordetella bronchiseptica
[1] = test system: M. alkalescens NCTC 10135; experiment: Anti-mycoplasma MIC; assay type: cell-based
M. dispar H225 = experiment: Anti-mycoplasma MIC; assay type: cell-based; conditions: M. dispar H225; Broth (Friis' broth, microtiter method); read-out: MIC
M. pulmonis JB = experiment: Anti-mycoplasma MIC; assay type: cell-based; conditions: Mycoplasmopsis pulmonis, read-out: MIC
M. bovis NCTC 10131 = experiment: microbe, parasite or virus in culture; assay type: cell-based; conditions: NCTC10131
M. pneumoniae 427a = experiment: Anti-mycoplasma MIC; assay type: cell-based; conditions: Mycoplasmoides pneumoniae, read-out: MIC
Bord. bronchiseptica BO8 = experiment: MIC against veterinary bacteria; conditions: Bordetella bronchiseptica
Past. haemolytica PA5 = experiment: MIC against veterinary bacteria; conditions: Mannheimia haemolytica
M. suipneumoniae Str. 11 = experiment: Anti-mycoplasma MIC; assay type: cell-based; conditions: Mesomycoplasma hyopneumoniae
M. dispar NCTC 10125 = experiment: Anti-mycoplasma MIC; assay type: cell-based; conditions: M. dispar NCTC 10125; Broth (Friis' broth, microtiter method); read-out: MIC
Past. multocida PA1 = experiment: MIC against veterinary bacteria; conditions: Pasteurella multocida
[2] = test system: M. bovigenitalium ATCC 14173; experiment: Anti-mycoplasma MIC; assay type: cell-based; conditions: M. bovigenitalium ATCC 14173; Agar (serial dilution in Friis' agar); read-out: MIC
Strep. pneumoniae CN33 = experiment: MIC by serial dilution in nutrient agar (human bacteria); conditions: Streptococcus pneumoniae
N. catarrhalis 1502 = experiment: as above; conditions: Neisseria
H. influenzae Wy21 = experiment: as above; conditions: Haemophilus influenzae
[3] = test system: Staph. aureus 152 (pen sensitive); experiment: MIC against veterinary bacteria; conditions: Staphylococcus aureus
M. gallisepticum S6 = experiment: Anti-mycoplasma MIC; assay type: cell-based; conditions: Mycoplasmoides gallisepticum; M. gallisepticum S6; Agar (serial dilution in Friis' agar); read-out: MIC
M. pneumoniae ATCC 15492 = experiment: Anti-mycoplasma MIC; assay type: cell-based; conditions: Mycoplasmoides pneumoniae, ATCC15492, M. pneumoniae ATCC 15492, read-out: MIC
Strep. dysgalactiae SPD1 = experiment: MIC against veterinary bacteria; conditions: Streptococcus dysgalactiae
Staph. aureus Oxford = experiment: MIC by serial dilution in nutrient agar (human bacteria); conditions: Staphylococcus aureus
Strep. pyogenes A 64/848 = experiment: as above; conditions: Streptococcus pyogenes, A64/848
Strep. pyogenes C 2761 = experiment: as above; conditions: Streptococcus pyogenes, C2761
Past. multocida 1633 = experiment: as above; conditions: Pasteurella multocida
[4] = test system: M. arthritidis ATCC 14124; experiment: Anti-mycoplasma MIC; assay type: cell-based; conditions: M. arthritidis ATCC 14124; Agar (serial dilution in Friis' agar); read-out: MIC
H. influenzae Q1 = experiment: MIC by serial dilution in nutrient agar (human bacteria); conditions: Haemophilus influenzae
[5] = test system: Staph. aureus B4 (pen resistant); experiment: MIC against veterinary bacteria; conditions: Staphylococcus aureus
Past. multocida PA2 = experiment: MIC against veterinary bacteria; conditions: Pasteurella multocida
M. bovis ATCC 25025 = experiment: microbe, parasite or virus in culture; assay type: cell-based; conditions: ATCC25025
[6] = test system: M. hyosynoviae ATCC 25591; experiment: Anti-mycoplasma MIC; assay type: cell-based; conditions: M. hyosynoviae ATCC 25591; Agar (serial dilution in Friis' agar); read-out: MIC
[7] = test system: M. suipneumoniae J2206/183b; experiment: Anti-mycoplasma MIC; assay type: cell-based; conditions: Mesomycoplasma hyopneumoniae, J2206/183B
M. fermentans MWKL4 = experiment: Anti-mycoplasma MIC; assay type: cell-based; conditions: Mycoplasmopsis fermentans, read-out: MIC
Strep. agalactiae SPA1 = experiment: MIC against veterinary bacteria; conditions: Streptococcus agalactiae
M. synoviae ATCC 25204 = experiment: Anti-mycoplasma MIC; assay type: cell-based; conditions: Mycoplasmopsis synoviae, ATCC25204; M. synoviae ATCC 25204; Agar (serial dilution in Friis' agar); read-out: MIC
[8] = Agar (serial dilution in Friis' agar)
[9] = Broth (Friis' broth, microtiter method)

## C/C(=C\C(=O)OCC(C)C)CC1OCC(C/C=C/C(C)C(C)O)C(O)C1O (stereo not shown) [Isobutyl, Isobutyl Monate C]
Strep. uberis SPU1
  MIC: 1.25 mg/L (≈ 3.25 µM)
M. hyorhinis ATCC 23234
  MIC: 2.5 mg/L (≈ 6.5 µM)
Strep. pyogenes B 2788
  MIC: 25 mg/L (≈ 65 µM)
B. subtilis
  MIC: 1 mg/L (≈ 2.6 µM)
Staph. aureus Russell
  MIC: 1 mg/L (≈ 2.6 µM)
Bord. bronchiseptica BO9
  MIC: 40 mg/L (≈ 104 µM)
[1]
  MIC: 0.156 mg/L (≈ 0.406 µM)
M. dispar H225
  MIC: 0.312 mg/L (≈ 0.811 µM)
M. pulmonis JB; [8]
  MIC: 0.078 mg/L (≈ 0.203 µM)
M. pulmonis JB; [9]
  MIC: < 0.02 mg/L
M. bovis NCTC 10131
  MIC: 0.156 mg/L (≈ 0.406 µM)
M. pneumoniae 427a; [8]
  MIC: 10 mg/L (≈ 26 µM)
M. pneumoniae 427a; [9]
  MIC: 1.25 mg/L (≈ 3.25 µM)
Bord. bronchiseptica BO8
  MIC: > 80 mg/L
Past. haemolytica PA5
  MIC: 80 mg/L (≈ 208 µM)
M. suipneumoniae Str. 11; STR.11
  MIC: 1.25 mg/L (≈ 3.25 µM)
M. dispar NCTC 10125
  MIC: 0.312 mg/L (≈ 0.811 µM)
Past. multocida PA1
  MIC: 10 mg/L (≈ 26 µM)
[2]
  MIC: 0.078 mg/L (≈ 0.203 µM)
Strep. pneumoniae CN33
  MIC: 5 mg/L (≈ 13 µM)
N. catarrhalis 1502
  MIC: 1 mg/L (≈ 2.6 µM)
H. influenzae Wy21
  MIC: 1 mg/L (≈ 2.6 µM)
[3]
  MIC: 1.25 mg/L (≈ 3.25 µM)
M. gallisepticum S6
  MIC: > 10 mg/L
M. pneumoniae ATCC 15492; [8]
  MIC: 10 mg/L (≈ 26 µM)
M. pneumoniae ATCC 15492; [9]
  MIC: 2.5 mg/L (≈ 6.5 µM)
Strep. dysgalactiae SPD1
  MIC: 5 mg/L (≈ 13 µM)
Staph. aureus Oxford
  MIC: 0.5 mg/L (≈ 1.3 µM)
Strep. pyogenes A 64/848
  MIC: 10 mg/L (≈ 26 µM)
Strep. pyogenes C 2761
  MIC: 25 mg/L (≈ 65 µM)
Past. multocida 1633
  MIC: 5 mg/L (≈ 13 µM)
[4]
  MIC: 5 mg/L (≈ 13 µM)
H. influenzae Q1
  MIC: 1 mg/L (≈ 2.6 µM)
[5]
  MIC: 1.25 mg/L (≈ 3.25 µM)
Past. multocida PA2
  MIC: 10 mg/L (≈ 26 µM)
M. bovis ATCC 25025
  MIC: 0.156 mg/L (≈ 0.406 µM)
[6]
  MIC: 0.625 mg/L (≈ 1.63 µM)
[7]
  MIC: 1.25 mg/L (≈ 3.25 µM)
M. fermentans MWKL4; [8]
  MIC: 0.312 mg/L (≈ 0.811 µM)
M. fermentans MWKL4; [9]
  MIC: 0.039 mg/L (≈ 0.101 µM)
Strep. agalactiae SPA1
  MIC: 10 mg/L (≈ 26 µM)
M. synoviae ATCC 25204
  MIC: 0.078 mg/L (≈ 0.203 µM)

## C/C(=C\C(=O)OCCCCCCO)CC1OCC(C/C=C/C(C)C(C)O)C(O)C1O (stereo not shown) [6-Hydroxyhexyl, 6-Hydroxyhexyl Monate C]
Strep. uberis SPU1
  MIC: 0.312 mg/L (≈ 0.728 µM)
M. hyorhinis ATCC 23234
  MIC: 1.25 mg/L (≈ 2.92 µM)
Strep. pyogenes B 2788
  MIC: 5 mg/L (≈ 11.7 µM)
B. subtilis
  MIC: 0.5 mg/L (≈ 1.17 µM)
Staph. aureus Russell
  MIC: 1 mg/L (≈ 2.33 µM)
Bord. bronchiseptica BO9
  MIC: 5 mg/L (≈ 11.7 µM)
[1]; M. alkalescens NCTC 10135, Agar (serial dilution in Friis' agar), read-out: MIC
  MIC: < 0.02 mg/L
M. dispar H225
  MIC: 0.156 mg/L (≈ 0.364 µM)
M. pulmonis JB; [8]
  MIC: 0.039 mg/L (≈ 0.091 µM)
M. pulmonis JB; [9]
  MIC: < 0.02 mg/L
M. bovis NCTC 10131
  MIC: < 0.02 mg/L
M. pneumoniae 427a; [8]
  MIC: 1.25 mg/L (≈ 2.92 µM)
M. pneumoniae 427a; [9]
  MIC: 0.625 mg/L (≈ 1.46 µM)
Bord. bronchiseptica BO8
  MIC: > 80 mg/L
Past. haemolytica PA5
  MIC: 40 mg/L (≈ 93.3 µM)
M. suipneumoniae Str. 11; M. suipneumoniae Str. 11, Broth (Friis' broth, microtiter method), read-out: MIC
  MIC: 0.625 mg/L (≈ 1.46 µM)
M. dispar NCTC 10125
  MIC: 0.156 mg/L (≈ 0.364 µM)
Past. multocida PA1
  MIC: 2.5 mg/L (≈ 5.83 µM)
[2]
  MIC: 0.039 mg/L (≈ 0.091 µM)
H. influenzae Wy21
  MIC: 0.2 mg/L (≈ 0.467 µM)
[3]
  MIC: 1.25 mg/L (≈ 2.92 µM)
M. gallisepticum S6
  MIC: 10 mg/L (≈ 23.3 µM)
M. pneumoniae ATCC 15492; [8]
  MIC: 1.25 mg/L (≈ 2.92 µM)
M. pneumoniae ATCC 15492; [9]
  MIC: 0.625 mg/L (≈ 1.46 µM)
Strep. dysgalactiae SPD1
  MIC: 1.25 mg/L (≈ 2.92 µM)
Staph. aureus Oxford
  MIC: 0.2 mg/L (≈ 0.467 µM)
Strep. pyogenes A 64/848
  MIC: 1 mg/L (≈ 2.33 µM)
Strep. pyogenes C 2761
  MIC: 5 mg/L (≈ 11.7 µM)
Past. multocida 1633
  MIC: 1 mg/L (≈ 2.33 µM)
[4]
  MIC: 5 mg/L (≈ 11.7 µM)
H. influenzae Q1
  MIC: 0.2 mg/L (≈ 0.467 µM)
[5]
  MIC: 1.25 mg/L (≈ 2.92 µM)
Past. multocida PA2
  MIC: 2.5 mg/L (≈ 5.83 µM)
M. bovis ATCC 25025
  MIC: < 0.02 mg/L
[6]
  MIC: 0.078 mg/L (≈ 0.182 µM)
[7]
  MIC: 1.25 mg/L (≈ 2.92 µM)
M. fermentans MWKL4; [8]
  MIC: 0.078 mg/L (≈ 0.182 µM)
M. fermentans MWKL4; [9]
  MIC: < 0.02 mg/L
Strep. agalactiae SPA1
  MIC: 5 mg/L (≈ 11.7 µM)
M. synoviae ATCC 25204
  MIC: < 0.02 mg/L
